# Reference: the supplement of paper PMC10307832
# Compound: CC(C)CCN1c2nc(Nc3cc(F)c(O)c(F)c3)ncc2N(C)C(=O)C1C [BI-D1870] + O=C(c1cc(Cc2n[nH]c(=O)c3ccccc23)ccc1F)N1CCN(C(=O)C2CC2)CC1 [Olaparib] (partner 8 µM)
# Experiment: relative viability (nuclei count vs DMSO), 5 days (fraction); higher = more cells survive
# Details: first compound 0.04 µM
# In short: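 Cells from lung cancer lines were seeded into 1536-well plates and, one day later, dosed by pin tool. Treatments were either a single drug or a fixed dose of an anchor drug with five library-drug doses (not always all listed) in √10 steps. After 5 days, nuclei were stained in a one-step fixation (final 0.05% Triton X-100, 1% formaldehyde, 1 ug/ml Hoechst) and counted on 4× images, and relative viability is the treated-to-vehicle nuclei ratio, as the median of duplicate plates.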
row,Cell Line,relative viability
1,NCI-H2342,0.524
2,NCI-H727,0.704
3,NCI-H1650,0.722
4,EBC-1,0.738
5,NCI-H1993,1.26
6,SW 1573,0.602
7,NCI-H838,0.792
8,LCLC-103H,0.813
9,NCI-H520,0.336
10,NCI-H2126,0.97
11,EMC-BAC-2,0.513
12,NCI-H2085,0.813
13,Calu-6,0.658
14,HCC-366,0.503
15,NCI-H1666,0.751
16,NCI-H596,0.73
17,LK-2,0.913
18,NCI-H2087,0.708
19,NCI-H1648,0.919

row,Cell Line,relative viability
1,SK-MES-1,0.77
2,H3255,0.591
3,COR-L23,0.315
4,COR-L 105,0.79
5,IA-LM,0.812
6,LOU-NH91,1.06
7,ChaGo-K-1,0.451
8,NCI-H2170,0.707
9,NCI-H2405,0.874
10,A549,0.382
11,NCI-H522,0.7
12,SW 900,0.826
13,NCI-H2009,0.831
14,NCI-H661,0.781
15,SK-LU-1,0.497
16,NCI-H1299,1.04
17,CAL-12T,0.692
18,NCI-H2228,0.678
19,NCI-H2023,0.504

# Same assay, conditions: first compound 0.1265 µM
row,Cell Line,relative viability
1,NCI-H2342,0.459
2,NCI-H727,0.563
3,NCI-H1650,0.767
4,EBC-1,0.581
5,NCI-H1703,0.439
6,NCI-H1993,0.907
7,SW 1573,0.415
8,NCI-H838,0.719
9,LCLC-103H,0.68
10,NCI-H520,0.355
11,NCI-H2126,0.928
12,EMC-BAC-2,0.451
13,NCI-H2085,0.768
14,Calu-6,0.534
15,HCC-366,0.348
16,NCI-H1666,0.715
17,NCI-H596,0.743
18,LK-2,0.655
19,NCI-H2087,0.519
20,NCI-H1648,0.691

row,Cell Line,relative viability
1,SK-MES-1,0.561
2,H3255,0.526
3,COR-L23,0.325
4,COR-L 105,0.533
5,IA-LM,0.739
6,LOU-NH91,0.892
7,ChaGo-K-1,0.379
8,NCI-H2170,0.605
9,NCI-H2405,0.826
10,A549,0.382
11,NCI-H522,0.627
12,SW 900,0.765
13,NCI-H2009,0.826
14,NCI-H661,0.746
15,SK-LU-1,0.377
16,NCI-H1299,1
17,CAL-12T,0.701
18,NCI-H2228,0.429
19,NCI-H2023,0.444

# Same assay, conditions: first compound 0.4 µM
row,Cell Line,relative viability
1,NCI-H2342,0.471
2,NCI-H727,0.675
3,NCI-H1650,0.788
4,EBC-1,0.574
5,NCI-H1703,0.328
6,NCI-H1993,0.987
7,SW 1573,0.432
8,NCI-H838,0.74
9,LCLC-103H,0.676
10,NCI-H520,0.295
11,NCI-H2126,0.895
12,EMC-BAC-2,0.453
13,NCI-H2085,0.737
14,Calu-6,0.479
15,HCC-366,0.295
16,NCI-H1666,0.736
17,NCI-H596,0.625
18,LK-2,0.683
19,NCI-H2087,0.572

row,Cell Line,relative viability
1,SK-MES-1,0.731
2,H3255,0.59
3,COR-L23,0.327
4,COR-L 105,0.713
5,IA-LM,0.913
6,LOU-NH91,0.903
7,ChaGo-K-1,0.414
8,NCI-H2170,0.575
9,NCI-H2405,0.89
10,A549,0.268
11,NCI-H522,0.67
12,SW 900,0.711
13,NCI-H2009,0.602
14,NCI-H661,0.738
15,SK-LU-1,0.41
16,NCI-H1299,0.996
17,CAL-12T,0.672
18,NCI-H2228,0.511
19,NCI-H2023,0.4

# Same assay, conditions: first compound 1.265 µM
row,Cell Line,relative viability
1,NCI-H2342,0.415
2,NCI-H727,0.649
3,NCI-H1650,0.943
4,EBC-1,0.337
5,NCI-H1703,0.487
6,NCI-H1993,1.15
7,SW 1573,0.419
8,NCI-H838,0.855
9,LCLC-103H,0.764
10,NCI-H520,0.246
11,NCI-H2126,0.885
12,EMC-BAC-2,0.512
13,NCI-H2085,0.702
14,Calu-6,0.359
15,HCC-366,0.42
16,NCI-H1666,0.7
17,NCI-H596,0.671
18,LK-2,0.834
19,NCI-H2087,0.563
20,NCI-H1648,0.633

row,Cell Line,relative viability
1,SK-MES-1,0.363
2,H3255,0.602
3,COR-L23,0.35
4,COR-L 105,0.687
5,IA-LM,0.851
6,LOU-NH91,0.911
7,ChaGo-K-1,0.412
8,NCI-H2170,0.587
9,NCI-H2405,0.802
10,A549,0.379
11,NCI-H522,0.667
12,SW 900,0.733
13,NCI-H2009,0.619
14,NCI-H661,0.737
15,SK-LU-1,0.427
16,NCI-H1299,0.892
17,CAL-12T,0.482
18,NCI-H2228,0.717
19,NCI-H2023,0.44

# Same assay, conditions: first compound 4 µM
row,Cell Line,relative viability
1,NCI-H2342,0.502
2,NCI-H727,0.779
3,NCI-H1650,0.817
4,EBC-1,0.183
